In US20260265238A1, “COMPOUNDS AND PHARMACEUTICAL COMPOSITIONS THAT DEGRADE SWI/SNF-RELATED MATRIX-ASSOCIATED ACTIN-DEPENDENT REGULATOR OF CHROMATIN SUBFAMILY A” (Plexium, Inc., priority 2023, published 2026):

Assays:
[1] = target: T1, SMARCA2-HiBiT HeLa cells (protein which is expressed from the SMARCA2 gene) (Homo sapiens, UniProt P51531); assay: SMARCA2 degradation assay (HiBiT-fusion HeLa cell line, 24 h, luminescence); assay type: cell-based
T1 construct: protein which is expressed from the SMARCA2 and SMARCA4 genes; host or cells: HeLa (SMARCA2-HiBiT engineered line)
T1 sequence (P51531 whole entry, the tested form may be a part): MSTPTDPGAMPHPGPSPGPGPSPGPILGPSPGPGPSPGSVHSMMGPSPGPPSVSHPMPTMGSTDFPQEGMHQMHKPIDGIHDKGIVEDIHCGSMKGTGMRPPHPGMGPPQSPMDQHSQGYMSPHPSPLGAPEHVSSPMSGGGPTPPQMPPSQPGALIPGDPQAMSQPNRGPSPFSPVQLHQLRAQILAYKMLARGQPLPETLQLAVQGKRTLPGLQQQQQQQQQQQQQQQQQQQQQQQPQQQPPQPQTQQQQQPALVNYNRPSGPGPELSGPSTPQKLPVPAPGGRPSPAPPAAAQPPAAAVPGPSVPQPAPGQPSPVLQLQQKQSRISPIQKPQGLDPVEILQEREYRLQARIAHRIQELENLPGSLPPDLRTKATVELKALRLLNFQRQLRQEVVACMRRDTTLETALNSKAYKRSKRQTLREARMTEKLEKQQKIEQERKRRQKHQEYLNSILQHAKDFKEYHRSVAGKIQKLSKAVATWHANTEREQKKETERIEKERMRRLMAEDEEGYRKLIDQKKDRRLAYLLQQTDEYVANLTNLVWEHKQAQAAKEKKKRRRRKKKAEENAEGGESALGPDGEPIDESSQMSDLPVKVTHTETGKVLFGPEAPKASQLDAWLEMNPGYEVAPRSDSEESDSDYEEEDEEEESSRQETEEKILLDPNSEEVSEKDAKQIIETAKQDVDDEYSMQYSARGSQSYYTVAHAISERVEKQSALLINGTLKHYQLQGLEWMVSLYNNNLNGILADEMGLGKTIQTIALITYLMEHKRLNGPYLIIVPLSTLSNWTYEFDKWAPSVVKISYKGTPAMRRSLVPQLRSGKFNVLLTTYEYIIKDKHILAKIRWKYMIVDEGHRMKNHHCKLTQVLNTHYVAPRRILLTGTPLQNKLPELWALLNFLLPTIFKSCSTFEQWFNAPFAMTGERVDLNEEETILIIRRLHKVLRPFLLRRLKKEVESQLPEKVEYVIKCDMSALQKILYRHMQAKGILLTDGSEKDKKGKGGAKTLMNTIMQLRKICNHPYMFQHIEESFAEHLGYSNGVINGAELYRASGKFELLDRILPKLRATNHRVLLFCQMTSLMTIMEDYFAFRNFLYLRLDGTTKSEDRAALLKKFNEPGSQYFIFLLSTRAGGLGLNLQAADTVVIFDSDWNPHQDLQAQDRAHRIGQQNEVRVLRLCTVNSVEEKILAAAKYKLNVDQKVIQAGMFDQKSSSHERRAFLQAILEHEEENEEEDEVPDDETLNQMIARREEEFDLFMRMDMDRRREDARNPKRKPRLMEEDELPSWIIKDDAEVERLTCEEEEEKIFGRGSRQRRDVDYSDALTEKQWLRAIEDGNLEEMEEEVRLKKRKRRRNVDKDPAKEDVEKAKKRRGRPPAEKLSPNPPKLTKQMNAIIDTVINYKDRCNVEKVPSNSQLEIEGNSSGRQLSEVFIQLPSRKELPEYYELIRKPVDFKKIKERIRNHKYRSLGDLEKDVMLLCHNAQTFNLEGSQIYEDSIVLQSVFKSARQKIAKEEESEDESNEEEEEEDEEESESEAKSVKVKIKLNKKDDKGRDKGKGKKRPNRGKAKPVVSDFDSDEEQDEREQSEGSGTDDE
Summary of the method: (§1)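 HeLa cells carrying HiBiT-tagged SMARCA2 or SMARCA4 were seeded at 8,000 cells/well, allowed to attach overnight at 37° C., then given compounds in a 10-point dilution series (typically 10 μM to 300 pM) for 24 hours at 37° C. Remaining tagged protein was read by HiBiT lytic luminescence, and DC50s came from dose-response curves.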

[2] = target: T2, SMARCA4-HiBiT HeLa cells (protein which is expressed from the SMARCA4 gene) (Homo sapiens, UniProt P51532); assay: SMARCA4 degradation assay (HiBiT-fusion HeLa cell line, 24 h, luminescence); assay type: cell-based
T2 construct: protein which is expressed from the SMARCA2 and SMARCA4 genes; host or cells: HeLa (SMARCA4-HiBiT engineered line)
T2 sequence (P51532 whole entry, the tested form may be a part): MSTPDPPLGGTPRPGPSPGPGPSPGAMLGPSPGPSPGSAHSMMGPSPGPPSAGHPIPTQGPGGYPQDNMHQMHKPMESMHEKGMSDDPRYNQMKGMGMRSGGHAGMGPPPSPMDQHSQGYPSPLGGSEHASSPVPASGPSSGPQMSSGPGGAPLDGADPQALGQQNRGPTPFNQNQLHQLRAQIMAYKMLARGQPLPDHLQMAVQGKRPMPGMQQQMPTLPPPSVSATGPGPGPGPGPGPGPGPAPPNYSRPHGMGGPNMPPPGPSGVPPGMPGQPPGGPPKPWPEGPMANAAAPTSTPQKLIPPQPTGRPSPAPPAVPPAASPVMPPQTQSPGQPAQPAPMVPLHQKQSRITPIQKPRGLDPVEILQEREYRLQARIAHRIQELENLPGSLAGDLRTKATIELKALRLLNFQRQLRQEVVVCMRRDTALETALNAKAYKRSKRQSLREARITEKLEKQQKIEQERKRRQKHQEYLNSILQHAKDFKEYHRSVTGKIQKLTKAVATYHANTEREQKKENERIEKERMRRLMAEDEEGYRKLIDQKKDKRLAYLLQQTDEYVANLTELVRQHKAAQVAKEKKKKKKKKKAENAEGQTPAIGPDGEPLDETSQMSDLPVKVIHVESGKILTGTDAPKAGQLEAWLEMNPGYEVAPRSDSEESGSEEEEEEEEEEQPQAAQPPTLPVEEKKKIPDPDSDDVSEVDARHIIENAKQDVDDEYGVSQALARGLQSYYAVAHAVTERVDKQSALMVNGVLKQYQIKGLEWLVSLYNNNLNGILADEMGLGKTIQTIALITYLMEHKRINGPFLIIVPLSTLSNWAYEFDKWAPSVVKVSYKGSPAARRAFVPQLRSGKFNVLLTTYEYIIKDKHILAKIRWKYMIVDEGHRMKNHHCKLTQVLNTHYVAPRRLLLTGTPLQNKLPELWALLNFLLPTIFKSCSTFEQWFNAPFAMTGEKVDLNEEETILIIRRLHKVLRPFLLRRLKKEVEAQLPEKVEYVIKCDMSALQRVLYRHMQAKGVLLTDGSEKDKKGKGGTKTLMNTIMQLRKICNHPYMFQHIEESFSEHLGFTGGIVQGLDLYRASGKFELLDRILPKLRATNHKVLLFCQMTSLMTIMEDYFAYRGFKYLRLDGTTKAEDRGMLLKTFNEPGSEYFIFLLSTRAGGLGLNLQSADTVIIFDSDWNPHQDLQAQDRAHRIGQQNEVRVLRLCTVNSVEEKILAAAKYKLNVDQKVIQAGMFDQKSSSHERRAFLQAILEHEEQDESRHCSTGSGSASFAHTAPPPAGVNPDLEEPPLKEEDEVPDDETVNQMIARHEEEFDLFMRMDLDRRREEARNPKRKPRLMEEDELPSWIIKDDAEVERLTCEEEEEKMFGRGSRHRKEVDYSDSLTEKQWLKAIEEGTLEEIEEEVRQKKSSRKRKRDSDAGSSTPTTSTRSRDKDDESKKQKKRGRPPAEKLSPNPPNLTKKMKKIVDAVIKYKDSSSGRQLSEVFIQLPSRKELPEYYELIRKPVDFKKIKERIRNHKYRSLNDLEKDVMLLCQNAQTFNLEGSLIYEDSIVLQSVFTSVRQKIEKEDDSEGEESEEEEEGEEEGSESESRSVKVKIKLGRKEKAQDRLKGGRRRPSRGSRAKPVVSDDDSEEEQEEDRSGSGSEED
Summary of the method: as §1

| Compound | DC50 [1] | SMARCA2 % Degradation @ 1 μM [1] | DC50 [2] | inhibition at 1 µM [2] |
| --- | --- | --- | --- | --- |
| Cc1cc(C)n2ncc(C(=O)NCC#Cc3nccc(N4CCN(c5cc(-c6ccccc6O)nnc5N)CC4)n3)c2n1 [Compound P-70, N-(3-(4-(4-(3-amino-6-(2-hydroxyphenyl)pyridazin-4-yl)piperazin-1-yl)pyrimidin-2-yl)prop-2-yn-1-yl)-5,7-dimethylpyrazolo[1,5-a]pyrimidine-3-carboxamide] | 0.05 to 0.5 µM | ++ (++=30-70%) | 0.05 to 0.5 µM | 30 to 70% |
| Nc1nnc(-c2ccccc2O)cc1N1CCN(c2ccnc(C#CCNC(=O)c3cnn4cccnc34)n2)CC1 [Compound P-71, N-(3-(4-(4-(3-amino-6-(2-hydroxyphenyl)pyridazin-4-yl)piperazin-1-yl)pyrimidin-2-yl)prop-2-yn-1-yl)pyrazolo[1,5-a]pyrimidine-3-carboxamide] | 0.05 to 0.5 µM | ++ (++=30-70%) | 0.05 to 0.5 µM | 30 to 70% |
| Nc1nnc(-c2ccccc2O)cc1N1CCN(c2ccnc(C#CCNC(=O)c3cnc4ccccc4n3)n2)CC1 [Compound P-72, N-(3-(4-(4-(3-amino-6-(2-hydroxyphenyl)pyridazin-4-yl)piperazin-1-yl)pyrimidin-2-yl)prop-2-yn-1-yl)quinoxaline-2-carboxamide] | < 0.05 µM | ++ (++=30-70%) | < 0.05 µM | 30 to 70% |
| Nc1nnc(-c2ccccc2O)cc1N1CCN(c2ccnc(C#CCNC(=O)c3cc4ccccc4[nH]3)n2)CC1 [Compound P-73, N-(3-(4-(4-(3-amino-6-(2-hydroxyphenyl)pyridazin-4-yl)piperazin-1-yl)pyrimidin-2-yl)prop-2-yn-1-yl)-1H-indole-2-carboxamide] | 0.05 to 0.5 µM | ++ (++=30-70%) | 0.05 to 0.5 µM | 30 to 70% |
| Cc1c(C(=O)NCC#Cc2nccc(N3CCN(c4cc(-c5ccccc5O)nnc4N)CC3)n2)oc2ccccc12 [Compound P-74, N-(3-(4-(4-(3-amino-6-(2-hydroxyphenyl)pyridazin-4-yl)piperazin-1-yl)pyrimidin-2-yl)prop-2-yn-1-yl)-3-methylbenzofuran-2-carboxamide] | 0.05 to 0.5 µM | ++ (++=30-70%) | 0.05 to 0.5 µM | 30 to 70% |
| Nc1nnc(-c2ccccc2O)cc1N1CCN(c2ccnc(C#CCNC(=O)c3cc4ccccc4o3)n2)CC1 [Compound P-75, N-(3-(4-(4-(3-amino-6-(2-hydroxyphenyl)pyridazin-4-yl)piperazin-1-yl)pyrimidin-2-yl)prop-2-yn-1-yl)benzofuran-2-carboxamide] | 0.05 to 0.5 µM | ++ (++=30-70%) | < 0.05 µM | 30 to 70% |
| Nc1nnc(-c2ccccc2O)cc1N1CCCN(c2ccnc(C#CCNC(=O)c3cc4ncccn4n3)n2)CC1 [Compound P-76, N-(3-(4-(4-(3-amino-6-(2-hydroxyphenyl)pyridazin-4-yl)-1,4-diazepan-1-yl)pyrimidin-2-yl)prop-2-yn-1-yl)pyrazolo[1,5-a]pyrimidine-2-carboxamide] | 0.05 to 0.5 µM | +++ (+++=>70%) | 0.05 to 0.5 µM | > 70% |
| Nc1nnc(-c2ccccc2O)cc1N1CCC2C1CCN2c1ccnc(C#CCNC(=O)c2cc3ncccn3n2)n1 (centres unmarked) [Compound P-77, N-(3-(4-(4-(3-amino-6-(2-hydroxyphenyl)pyridazin-4-yl)hexahydropyrrolo[3,2-b]pyrrol-1(2H)-yl)pyrimidin-2-yl)prop-2-yn-1-yl)pyrazolo[1,5-a]pyrimidine-2-carboxamide] | 0.5 to 5 µM | + (+=<30%) | 0.05 to 0.5 µM | 30 to 70% |
| Nc1nnc(-c2ccccc2O)cc1N1C2CCC1CN(c1ccnc(C#CCNC(=O)c3cc4ncccn4n3)n1)C2 [Compound P-78, N-(3-(4-(8-(3-amino-6-(2-hydroxyphenyl)pyridazin-4-yl)-3,8-diazabicyclo[3.2.1]octan-3-yl)pyrimidin-2-yl)prop-y2-yn-1-l)pyrazolo[1,5-a]pyrimidine-2-carboxamide] | 0.05 to 0.5 µM | +++ (+++=>70%) | 0.05 to 0.5 µM | 30 to 70% |
| Nc1nnc(-c2ccccc2O)cc1N1CCCC2C1CCN2c1ccnc(C#CCNC(=O)c2cc3ncccn3n2)n1 (centres unmarked) [Compound P-79, N-(3-(4-(4-(3-amino-6-(2-hydroxyphenyl)pyridazin-4-yl)octahydro-1H-pyrrolo[3,2-b]pyridin-1-yl)pyrimidin-2-yl)prop-2-yn-1-yl)pyrazolo[1,5-a]pyrimidine-2-carboxamide] | 0.5 to 5 µM | ++ (++=30-70%) | 0.05 to 0.5 µM | 30 to 70% |
| Nc1nnc(-c2ccccc2O)cc1N1C2CC1CN(c1ccnc(C#CCNC(=O)c3cc4ncccn4n3)n1)C2 [Compound P-80, N-(3-(4-(6-(3-amino-6-(2-hydroxyphenyl)pyridazin-4-yl)-3,6-diazabicyclo[3.1.1]heptan-3-yl)pyrimidin-2-yl)prop-2-yn-1-yl)pyrazolo[1,5-a]pyrimidine-2-carboxamide] | 0.5 to 5 µM | + (+=<30%) | > 5 µM | < 30% |
| C[C@@H]1CN(c2ccnc(C#CCNC(=O)c3cc4ncccn4n3)n2)C[C@@H](C)N1c1cc(-c2ccccc2O)nnc1N [Compound P-82, N-(3-(4-((3R,5R)-4-(3-amino-6-(2-hydroxyphenyl)pyridazin-4-yl)-3,5-dimethylpiperazin-1-yl)pyrimidin-2-yl)prop-2-yn-1-yl)pyrazolo[1,5-a]pyrimidine-2-carboxamide] | 0.5 to 5 µM | + (+=<30%) | 0.5 to 5 µM | < 30% |
| CC1(C)CN(c2ccnc(C#CCNC(=O)c3cc4ncccn4n3)n2)CCN1c1cc(-c2ccccc2O)nnc1N [Compound P-83, N-(3-(4-(4-(3-amino-6-(2-hydroxyphenyl)pyridazin-4-yl)-3,3-dimethylpiperazin-1-yl)pyrimidin-2-yl)prop-2-yn-1-yl)pyrazolo[1,5-a]pyrimidine-2-carboxamide] | 0.5 to 5 µM | + (+=<30%) | 0.05 to 0.5 µM | < 30% |
| NCC#Cc1nccc(N2CC3CN(c4cc(-c5ccccc5O)nnc4N)C3C2)n1 (centres unmarked) [Compound P-84, 2-(6-amino-5-(3-(2-(3-aminoprop-1-yn-1-yl)pyrimidin-4-yl)-3,6-diazabicyclo[3.2.0]heptan-6-yl)pyridazin-3-yl)phenol] | 0.5 to 5 µM | + (+=<30%) | > 5 µM | < 30% |
| CC1CCN(c2cc(-c3ccccc3O)nnc2N)CCN1c1ccnc(C#CCN)n1 (centres unmarked) [Compound P-85, 2-(6-amino-5-(4-(2-(3-aminoprop-1-yn-1-yl)pyrimidin-4-yl)-5-methyl-1,4-diazepan-1-yl)pyridazin-3-yl)phenol] | 0.5 to 5 µM | + (+=<30%) | 0.5 to 5 µM | < 30% |
| C[C@H]1CN(c2ccnc(C#CCN)n2)CCN1c1cc(-c2ccccc2O)nnc1N [Compound P-86, (S)-2-(6-amino-5-(4-(2-(3-aminoprop-1-yn-1-yl)pyrimidin-4-yl)-2-methylpiperazin-1-yl)pyridazin-3-yl)phenol] | 0.5 to 5 µM | + (+=<30%) | > 5 µM | – |
| NCC#Cc1nccc(N2CCC3(CCCN(c4cc(-c5ccccc5O)nnc4N)C3)CC2)n1 [Compound P-89, 2-(6-amino-5-(9-(2-(3-aminoprop-1-yn-1-yl)pyrimidin-4-yl)-2,9-diazaspiro[5.5]undecan-2-yl)pyridazin-3-yl)phenol] | 0.5 to 5 µM | + (+=<30%) | 0.5 to 5 µM | < 30% |
| NCC#Cc1nccc(N2CCC3(CC2)CCN(c2cc(-c4ccccc4O)nnc2N)CC3)n1 [Compound P-90, 2-(6-amino-5-(9-(2-(3-aminoprop-1-yn-1-yl)pyrimidin-4-yl)-3,9-diazaspiro[5.5]undecan-3-yl)pyridazin-3-yl)phenol] | 0.5 to 5 µM | + (+=<30%) | 0.5 to 5 µM | < 30% |
| NCC#Cc1nccc(N2C3CC2CN(c2cc(-c4ccccc4O)nnc2N)C3)n1 [Compound P-91, 2-(6-amino-5-(6-(2-(3-aminoprop-1-yn-1-yl)pyrimidin-4-yl)-3,6-diazabicyclo[3.1.1]heptan-3-yl)pyridazin-3-yl)phenol] | 0.5 to 5 µM | + (+=<30%) | 0.5 to 5 µM | < 30% |
| Nc1nnc(-c2ccccc2O)cc1N1CCN(c2ccnc(C#CCCCNC(=O)c3cc4ncccn4n3)n2)CC1 [Compound P-92, N-(5-(4-(4-(3-amino-6-(2-hydroxyphenyl)pyridazin-4-yl)piperazin-1-yl)pyrimidin-2-yl)pent-4-yn-1-yl)pyrazolo[1,5-a]pyrimidinc-2-carboxamidc] | 0.05 to 0.5 µM | + (+=<30%) | 0.05 to 0.5 µM | 30 to 70% |
| Nc1nnc(-c2ccccc2O)cc1N1CCN(c2ccnc(C#CCNC(=O)c3cc4ncccn4n3)n2)CC1 [Compound P-93, N-(3-(4-(4-(3-amino-6-(2-hydroxyphenyl)pyridazin-4-yl)piperazin-1-yl)pyrimidin-2-yl)prop-2-yn-1-yl)pyrazolo[1,5-a]pyrimidine-2-carboxamide] | 0.05 to 0.5 µM | ++ (++=30-70%) | < 0.05 µM | 30 to 70% |
